Test results from patent US9394338B2, “Glutathione analogs and uses thereof” (REGENTS OF THE UNIVERSITY OF MINNESOTA, priority 2011, dated 2016).
Read-outs that look alike come from different tables or passages of the source.

Tests used:
[1] = system: equine kidney γ-glutamyltranspeptidase; experiment: γ-Glutamyltranspeptidase assay (stability to γ-GT mediated degradation); assay type: in vitro ADME
Protocol: γ-Glutamyltranspeptidase Assay. […] The plates were developed alongside authentic predicted degradation products with the solvent system: 4:1.5:2; Butanol/Acetic acid/Water. Visual detection of TLC spots was performed under UV and also by iodine and fluorescamine staining solution.

SH-SY-5Y cells [2] = experiment: cells; assay type: cell-based; details: for protection against Aβ toxicity: 10 μM, pretreatment 24 h; for protection against Aβ toxicity / length of cytoprotection against Aβ toxicity: 20 μM Aβ (1-42); for inhibition at 1000 µM: Homo sapiens, SH-SY5Y, SH-SY-5Y, compound 1 mM 24 h; for length of cytoprotection against Aβ toxicity: pretreatment of SH-SY-5Y cells
Protocol: (§1) Cytotoxicity Studies: Protection against β-amyloid 1-42 cytotoxicity in SH-SY-5Y cells was measured by standard MTT assays. SH-SY-5Y cells were seeded in 96-well plates at the density of 30,000 cells/well. After overnight incubation, the cells were exposed to GSH or Ψ-GSH at a concentration of 1 mM for 24 h at 37° C. After 24 h of incubation, the drug-containing medium was replaced with media containing 20 μM β-amyloid 1-42 peptide and the incubation was allowed to continue for additional 24 hours after the addition of the drugs. At the end of the incubation, 20 μL of MTT stock solution (5 mg/mL) was added to each well and incubated for 3 h at 37° C. The MTT reaction medium was discarded and the purple-blue MTT formazan crystals were dissolved by the addition of 100 μL of 0.1 N HCl in isopropanol. The optical density (OD), a reflection mitochondrial function of the viable cells, was read directly with a microplate reader (BioTek SynergyHT, VT, USA) at 580 nm and a reference wavelength of 680 nm. Concentration response graphs were generated for each drug using GraphPad Prism software (GraphPad Software, Inc., San Diego, Calif., USA). Results are expressed as mean percent inhibition of β-amyloid toxicity with the standard error of the mean. In another set of experiments, cells were preincubated with a glyoxalase I inhibitor, S-(p-bromobenzylglutathione) (1 mM) for 24 hours before addition of βamyloid1-42 peptide (20 μM).
as §1, with “Protection” for “Cytotoxicity Studies: Protection”, “against β-amyloid^1-42” for “against β-amyloid 1-42”, “cells/well. […]” for “cells/well. After overnight incubation, the cells were exposed to GSH or Ψ-GSH at a concentration of 1 mM for 24 h at 37° C.”, “μM β-amyloid^1-42” for “μM β-amyloid 1-42”, “20 μl,” for “20 μL”, “mean.” for “mean. In another set of experiments, cells were preincubated with a glyoxalase I inhibitor, S-(p-bromobenzylglutathione) (1 mM) for 24 hours before addition of βamyloid1-42 peptide (20 μM).”

SH-SY-5Y cells [3] = experiment: Protection against H2O2 cytotoxicity, MTT assay; assay type: cell-based, human; details: preincubation 24 h, H2O2 50 μM 30 min
Protocol: Similar procedures were used for determining the protective effect of GSH and its analog against H2O2 cytotoxicity. After preincubation of cells with GSH or Ψ-GSH for 24 hours, cells were exposed to H2O2 (50 μM) for 30 min and the media was replaced with fresh media. Cells were incubated for an additional 24 h after which the cell viability was the determined by the MTT assay as described earlier.

SH-SY-5Y cells [4] = experiment: H2O2 and MG-induced cellular oxidative stress (DCFH-DA); assay type: cell-based, human; details: for intracellular ROS after H2O2 exposure: H2O2 500 μM, co-incubation with 250 μM compound; for ROS generated by MG treatment: MG 1 mM, 180 min, 250 μM compound
Protocol: H2O2 and MG-Induced Cellular Oxidative Stress. SH-SY-5Y cells were cultured in 96-well black plates at the density of 10,000 cells/well and were allowed to reach confluence (˜48 h). The cells were then treated with a solution of 2,7-dichlorofluorescin diacetate (DCFH-DA, 20 μM) in RPMI 1640 medium without FBS for 45 min. Extracellular DCFH-DA was removed by washing twice with PBS. To induce oxidative stress, the cells were treated with hydrogen peroxide (500 μM) or methylglyoxal (1 mM) in RPMI media without FBS in presence and absence of GSH or Ψ-GSH (250 μM) for 90 min or 180 min at 37° C. in the dark. The cells were washed with PBS and then lysed by adding 250 μl of 90% DMSO/10% PBS for 10 min in the dark at room temperature with shaking. The fluorescence intensity in each well was measured in the fluorescence plate reader (BioTek SynergyHT, VT, USA) at an excitation of 485 nm and an emission of 538 nm and normalized to the protein content in each well as determined by the BCA assay. (Wang et al., Free Radic. Res. 2008, 42, 435-441)

[5] = then 20 μM Aβ1-42 24 h, read-out: % Inhibition of Cell Growth with Aβ1-42
[6] = without Aβ1-42, read-out: % Inhibition of Cell Growth without Aβ1-42

Structure (SMILES)	time to complete degradation by γ-GT ([1]; incubation with γ-GT)	protection against Aβ toxicity (SH-SY-5Y cells [2])	inhibition at 1000 µM (SH-SY-5Y cells [2]; [5])	inhibition at 1000 µM (SH-SY-5Y cells [2]; [6])	length of cytoprotection against Aβ toxicity (SH-SY-5Y cells [2])	protection against peroxide cytotoxicity (SH-SY-5Y cells [3])	intracellular ROS after H2O2 exposure (SH-SY-5Y cells [4])	ROS generated by MG treatment (SH-SY-5Y cells [4])	degradation during incubation with γ-GT ([1]; incubation with γ-GT for up to 24 h)
N[C@@H](CCC(=O)N[C@@H](CS)C(=O)NCC(=O)O)C(=O)O [GSH, Glutathione]	≤ 30 min	fully protected the cells	12%	0%	significant only until day 3	dose-dependent protection	reduction in ROS to the levels in control cells	neutralized effectively	
N[C@@H](CNC(=O)N[C@@H](CS)C(=O)NCC(=O)O)C(=O)O [Ψ-GSH, γ-Gla-Cys-Gly-OH]		fully protected the cells	4%	0%	five days	dose-dependent protection	reduction in ROS to the levels in control cells	neutralized effectively	No appreciable degradation
